Assay results reported in patent US11413290B2, “Amorphous solid dispersions of dasatinib and uses thereof” (NANOCOPOEIA, LLC, priority 2020, dated 2022).

Assays:
[1] = dasatinib in crystalline forms; cited from earlier work
[2] = Amorphicity / crystallinity by XRD; format: physicochemical; conditions: Comparative Example; promptly after spray drying and secondary drying
Method: The percent of crystallinity was calculated as follows: % crystallinity=area of crystalline peaks/(area of crystalline peaks+amorphous peaks)
Amorphicity and glass transition temperature were assessed using the methodology described in Example 1.

[3] = Water content by coulometric Karl Fischer titration; format: physicochemical; conditions: Comparative Example; promptly after preparation
[4] = Assay and total impurities by HPLC (Example 6); format: physicochemical; conditions: Comparative Example; promptly after preparation
Method: Assay and total impurities of the ASDs were assessed using either an Agilent 1200 HPLC or a Waters Alliance e2695 HPLC.
L100-55 ASDs and in Table 37 for Dasatinib:METHOCEL E5 ASDs at t=0 and at each stability time point. These reported assay values are corrected for the measured water content of the sample.

[5] = Glass transition temperature by mDSC; conditions: Comparative Example; promptly after preparation

Compound | Biopharmaceutical Classification System (BCS) class [1] | XRD character [2] | Water content [3] [%] | assay value [4] [%] | glass transition temperature (Tg), transition event [5] [°C]
Cc1nc(Nc2ncc(C(=O)Nc3c(C)cccc3Cl)s2)cc(N2CCN(CCO)CC2)n1 [dasatinib, N-(2-chloro-6-methylphenyl)-2-[[6-[4-(2-hydroxyethyl)-1-piperazinyl]-2-methyl-4-pyrimidinyl]amino]-5-thiazolecarboxamide] | Class II |  |  |  | 
Cc1nc(Nc2ncc(C(=O)Nc3c(C)cccc3Cl)s2)cc(N2CCN(CCO)CC2)n1 [spray-dried material of 100% dasatinib] |  | exhibited crystalline character | 0.81 | 97.4 | 125.61
